Measured values as given in PubChem BioAssay (NCI).
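Cultured in 96-well plates, cells were exposed to test compound for 48 hours across five concentrations. GI50 marks 50% less growth. TGI: total growth inhibition.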

Experiments:
Assay in all cases: inhibition of tumour cell growth, NCI panel, 48 h
OVCAR-3 ovarian = system: OVCAR-3 ovarian
OVCAR-4 ovarian = system: OVCAR-4 ovarian
SK-MEL-2 melanoma = system: SK-MEL-2 melanoma
MCF7 breast = system: MCF7 breast
HOP-92 NSCLC = system: HOP-92 NSCLC
SK-MEL-5 melanoma = system: SK-MEL-5 melanoma
EKVX NSCLC = system: EKVX NSCLC
PC-3 prostate = system: PC-3 prostate
BT-549 breast = system: BT-549 breast
OVCAR-8 ovarian = system: OVCAR-8 ovarian
HCC-2998 colon = system: HCC-2998 colon
CCRF-CEM leukemia = system: CCRF-CEM leukemia
UO-31 renal = system: UO-31 renal
HT29 colon = system: HT29 colon
MOLT-4 leukemia = system: MOLT-4 leukemia
IGROV1 ovarian = system: IGROV1 ovarian
MALME-3M melanoma = system: MALME-3M melanoma
786-0 renal = system: 786-0 renal
NCI-H226 lung = system: NCI-H226 lung
UACC-62 melanoma = system: UACC-62 melanoma
DU-145 prostate = system: DU-145 prostate
HL-60(TB) leukemia = system: HL-60(TB) leukemia
K-562 leukemia = system: K-562 leukemia
SNB-19 CNS = system: SNB-19 CNS
ACHN renal = system: ACHN renal
NCI-H460 lung = system: NCI-H460 lung
LOX IMVI melanoma = system: LOX IMVI melanoma
SW-620 colon = system: SW-620 colon
KM12 colon = system: KM12 colon
UACC-257 melanoma = system: UACC-257 melanoma
SN12C renal = system: SN12C renal
SK-OV-3 ovarian = system: SK-OV-3 ovarian
SK-MEL-28 melanoma = system: SK-MEL-28 melanoma
OVCAR-5 ovarian = system: OVCAR-5 ovarian
MDA-MB-435 = system: MDA-MB-435
SF-539 CNS = system: SF-539 CNS
HCT-15 colon = system: HCT-15 colon
HOP-62 NSCLC = system: HOP-62 NSCLC
RPMI-8226 leukemia = system: RPMI-8226 leukemia
COLO 205 colon = system: COLO 205 colon
NCI-H522 lung = system: NCI-H522 lung
HS 578T breast = system: HS 578T breast
NCI/ADR-RES ovarian = system: NCI/ADR-RES ovarian
SF-295 CNS = system: SF-295 CNS
MDA-MB-231 breast = system: MDA-MB-231 breast
CAKI-1 renal = system: CAKI-1 renal
TK-10 renal = system: TK-10 renal
SF-268 CNS = system: SF-268 CNS
U251 CNS = system: U251 CNS
M14 melanoma = system: M14 melanoma
T-47D breast = system: T-47D breast
A549 NSCLC = system: A549 NSCLC
NCI-H23 lung = system: NCI-H23 lung
RXF 393 renal = system: RXF 393 renal
SR leukemia = system: SR leukemia
SNB-75 CNS = system: SNB-75 CNS
A498 renal = system: A498 renal
HCT-116 colon = system: HCT-116 colon
MDA-N = system: MDA-N

## CN(C)CCCCC(C(=O)CBr)(c1ccccc1)c1ccccc1
OVCAR-3 ovarian
  GI50: 1370 nM
  TGI: 2690 nM
OVCAR-4 ovarian
  GI50: 1540 nM
  TGI: 7.88 µM
SK-MEL-2 melanoma
  GI50: 2180 nM
  TGI: 6.02 µM
MCF7 breast
  GI50: 1500 nM
  TGI: 3.25 µM
HOP-92 NSCLC
  GI50: 1840 nM
  TGI: 4.71 µM
SK-MEL-5 melanoma
  GI50: 2530 nM
  TGI: 8.68 µM
EKVX NSCLC
  GI50: 2220 nM
  TGI: 7.42 µM
PC-3 prostate
  GI50: 2710 nM
  TGI: 9.58 µM
BT-549 breast
  GI50: 1480 nM
  TGI: 3.47 µM
OVCAR-8 ovarian
  GI50: 2520 nM
  TGI: 8.48 µM
HCC-2998 colon
  GI50: 2440 nM
  TGI: 5.55 µM
CCRF-CEM leukemia
  GI50: 2060 nM
  TGI: 6.45 µM
UO-31 renal
  GI50: 1270 nM
  TGI: 2790 nM
HT29 colon
  GI50: 1920 nM
  TGI: 3.94 µM
MOLT-4 leukemia
  GI50: 1920 nM
  TGI: 5.67 µM
IGROV1 ovarian
  GI50: 3.6 µM
  TGI: 15.6 µM
MALME-3M melanoma
  GI50: 1440 nM
  TGI: 3.62 µM
786-0 renal
  GI50: 2120 nM
  TGI: 4.37 µM
NCI-H226 lung
  GI50: 2380 nM
  TGI: 8.39 µM
UACC-62 melanoma
  GI50: 1640 nM
  TGI: 4.14 µM
DU-145 prostate
  GI50: 1660 nM
  TGI: 3.63 µM
HL-60(TB) leukemia
  GI50: 1220 nM
  TGI: 3.95 µM
K-562 leukemia
  GI50: 2080 nM
  TGI: 5.48 µM
SNB-19 CNS
  GI50: 7.43 µM
  TGI: 23.9 µM
ACHN renal
  GI50: 1480 nM
  TGI: 3.03 µM
NCI-H460 lung
  GI50: 6.36 µM
  TGI: 23 µM
LOX IMVI melanoma
  GI50: 1440 nM
  TGI: 2990 nM
SW-620 colon
  GI50: 1670 nM
  TGI: 5.58 µM
KM12 colon
  GI50: 7.57 µM
  TGI: 20.7 µM
UACC-257 melanoma
  GI50: 1960 nM
  TGI: 6.59 µM
SN12C renal
  GI50: 1980 nM
  TGI: 5.07 µM
SK-OV-3 ovarian
  GI50: 6.63 µM
  TGI: 19.4 µM
SK-MEL-28 melanoma
  GI50: 1770 nM
  TGI: 3.49 µM
OVCAR-5 ovarian
  GI50: 3.06 µM
  TGI: 10.9 µM
MDA-MB-435
  GI50: 2450 nM
  TGI: 10.5 µM
SF-539 CNS
  GI50: 2570 nM
  TGI: 6.84 µM
HCT-15 colon
  GI50: 1640 nM
  TGI: 3.37 µM
HOP-62 NSCLC
  GI50: 8.06 µM
  TGI: 23.6 µM
RPMI-8226 leukemia
  GI50: 1960 nM
  TGI: 5.53 µM
COLO 205 colon
  GI50: 1780 nM
  TGI: 3.95 µM
NCI-H522 lung
  GI50: 1250 nM
  TGI: 3.4 µM
HS 578T breast
  GI50: 3.11 µM
  TGI: 22.7 µM
NCI/ADR-RES ovarian
  GI50: 2850 nM
  TGI: 10.1 µM
SF-295 CNS
  GI50: 5.56 µM
  TGI: 19.2 µM
MDA-MB-231 breast
  GI50: 1890 nM
  TGI: 4.49 µM
CAKI-1 renal
  GI50: 1420 nM
  TGI: 2840 nM
TK-10 renal
  GI50: 1500 nM
  TGI: 3.01 µM
SF-268 CNS
  GI50: 3.89 µM
  TGI: 15.8 µM
U251 CNS
  GI50: 3.07 µM
  TGI: 11.5 µM
M14 melanoma
  GI50: 1500 nM
  TGI: 3.95 µM
T-47D breast
  GI50: 1140 nM
  TGI: 3.71 µM
A549 NSCLC
  GI50: 4.93 µM
  TGI: 18.8 µM
NCI-H23 lung
  GI50: 2810 nM
  TGI: 10.8 µM
RXF 393 renal
  GI50: 1740 nM
  TGI: 4.06 µM
SR leukemia
  GI50: 2120 nM
  TGI: 7.02 µM
SNB-75 CNS
  GI50: 1870 nM
  TGI: 13.9 µM

## CC1(C)CC(=O)C2=C(C1)NC1=C(C2)C(=O)CC(C)(C)C1
OVCAR-3 ovarian
  TGI: > 100000 nM
OVCAR-4 ovarian
  TGI: > 100 µM
MCF7 breast
  TGI: > 100 µM
SK-MEL-5 melanoma
  TGI: > 100 µM
EKVX NSCLC
  TGI: > 100 µM
PC-3 prostate
  TGI: > 100 µM
A498 renal
  TGI: > 100 µM
BT-549 breast
  TGI: > 100 µM
OVCAR-8 ovarian
  TGI: > 100 µM
HCC-2998 colon
  TGI: > 100 µM
CCRF-CEM leukemia
  TGI: > 100 µM
UO-31 renal
  TGI: > 100000 nM
HT29 colon
  TGI: > 100 µM
MOLT-4 leukemia
  TGI: > 100 µM
IGROV1 ovarian
  TGI: > 100 µM
MALME-3M melanoma
  TGI: > 100 µM
HCT-116 colon
  TGI: > 100 µM
786-0 renal
  TGI: > 100 µM
NCI-H226 lung
  TGI: > 100 µM
UACC-62 melanoma
  TGI: > 100 µM
DU-145 prostate
  TGI: > 100 µM
HL-60(TB) leukemia
  TGI: > 100 µM
K-562 leukemia
  TGI: > 100 µM
SNB-19 CNS
  TGI: > 100 µM
ACHN renal
  TGI: > 100 µM
NCI-H460 lung
  TGI: > 100 µM
LOX IMVI melanoma
  TGI: > 100000 nM
SW-620 colon
  TGI: > 100 µM
KM12 colon
  TGI: > 100 µM
UACC-257 melanoma
  TGI: > 100 µM
SN12C renal
  TGI: > 100 µM
SK-OV-3 ovarian
  TGI: > 100 µM
SK-MEL-28 melanoma
  TGI: > 100 µM
OVCAR-5 ovarian
  TGI: > 100 µM
MDA-MB-435
  TGI: > 100 µM
SF-539 CNS
  TGI: > 100 µM
HCT-15 colon
  TGI: > 100 µM
HOP-62 NSCLC
  TGI: > 100 µM
RPMI-8226 leukemia
  TGI: > 100 µM
COLO 205 colon
  TGI: > 100 µM
HS 578T breast
  TGI: > 100 µM
NCI/ADR-RES ovarian
  TGI: > 100 µM
SF-295 CNS
  TGI: > 100 µM
MDA-MB-231 breast
  TGI: > 100 µM
CAKI-1 renal
  TGI: > 100000 nM
TK-10 renal
  TGI: > 100 µM
SF-268 CNS
  TGI: > 100 µM
U251 CNS
  TGI: > 100 µM
M14 melanoma
  TGI: > 100 µM
A549 NSCLC
  TGI: > 100 µM
NCI-H23 lung
  TGI: > 100 µM
MDA-N
  TGI: > 100 µM
RXF 393 renal
  TGI: > 100 µM
SR leukemia
  TGI: > 100 µM
SNB-75 CNS
  TGI: > 100 µM
